Measurements: PubChem BioAssay AID179 (DTP/NCI, 2004)
pEC50, pIC50: −log10 of the molar value. Calls of active or inactive are those of the source.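 Rule for the calls: active = compounds giving half or more protection of infected cells from virus-caused growth loss, again on retest; inactive = the rest.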

Test system: CEM cells HIV-1 protection, formazan growth assay
Experiment: NCI AIDS Antiviral Assay
Settings: for pIC50: measured here: growth of uninfected CEM cells
Procedure, shortened: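 Steps: treat uninfected and HIV-1-infected human CEM cells at five drug levels; quantify growth by soluble formazan; retest any compound reaching 50% protection; classify actives from the retest.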

| Compound | outcome | pEC50 | pIC50 |
| --- | --- | --- | --- |
| CN(C)CCCN1N=Nc2cccc3cccc1c23 | inactive |  |  |
| CC1(CC(=O)O)C(=O)CCCC1=O | inactive |  |  |
| CCOC(=O)Nc1cc2c(c(N)n1)N=C(c1ccccc1)CN2 |  | < 6.77 | 7.50 |
| CC[P+](C#Cc1ccccc1)(c1ccccc1)c1ccccc1 |  | < 4.70 | 6.31 |
| CC1(C)OC2C(CF)OC(n3cc(Br)c(=O)[nH]c3=O)C2O1 (stereo not given) |  | < 3.70 | < 3.70 |
| Cc1cn(C2CC3C(COC(c4ccccc4)N3O)O2)c(=O)[nH]c1=O (stereo not given) |  | < 3.70 | 4.46 |
| [N-]=[N+]=C1C(=O)C2CC3CC1CC2C3 (stereo not given) |  | < 3.69 | < 3.69 |
| COc1ccc2c(=O)c(O)c(-c3ccccc3)oc2c1 |  | < 4.18 | 4.91 |
| c1ccc2c(-c3cccc4ccccc34)cccc2c1 |  | < 3.70 | < 3.70 |
| CSC12c3cc(C)n(-c4ccccc4)c3CC(C)(C)CN1C(=O)C2Oc1ccccc1 (stereo not given) |  | < 3.70 | 4.79 |
| Nc1ncnc2sc(Nc3ccccc3)nc12 |  | < 4.27 | 4.48 |
| OCCNCN(CNCCO)c1nc(N(CNCCO)CNCCO)nc(N(CNCCO)CNCCO)n1 |  | < 3.70 | 4.95 |
| N#CCN(Cc1ccccc1)[C@H]1CCC[C@]1(O)/C=C/c1ccc2c(c1)OCO2 |  | < 3.70 | 4.49 |
| NC(=S)N/N=C1\C(=O)N(c2cccc([N+](=O)[O-])c2)C(=O)C1C(=O)Nc1cccc([N+](=O)[O-])c1 (stereo not given) | inactive |  |  |
| CC(C)OC(=O)C(NC(=O)C(CC(=O)OCc1ccccc1)NC(=O)OCc1ccccc1)NC(=O)C1C(C)(C)CCC1(C)C (stereo not given) |  | < 3.70 | 4.90 |
| O=C(NNC(=S)NC1CC(c2ccccc2)Oc2ccccc21)c1ccccc1 (stereo not given) | inactive |  |  |
| COc1cc2ccnc3c2c(c1OC)-c1ccccc1C3=O | inactive |  |  |
| Cc1nc(-n2nc(-c3ccccc3)cc2-c2ccccc2)sc1C(=O)/C=C/c1ccc(Cl)cc1 |  | < 4.83 | < 4.83 |
| CN(C)CCNC(=O)Cn1ccc(=O)c2ccc([N+](=O)[O-])cc21 |  | < 3.70 | < 3.70 |
| COc1cc2c3c(c1)[nH]c(=S)n3C(=O)CCS2 |  | < 3.70 | < 4.00 |
| Oc1cc(O)c2c(c1)O[C@H](c1cc(O)c(O)c(O)c1)[C@H](O)C2 |  | < 3.70 | 6.16 |
| Cc1[nH]nc2c1NC(=O)OCC2 |  | < 3.26 | < 3.26 |
| O=[N+]([O-])c1cc2ccc1OCc1cccc(n1)COc1ccc(cc1[N+](=O)[O-])C=NCCCCCCCCN=C2 |  | < 3.70 | < 3.70 |

| Compound | outcome | pEC50 | pIC50 |
| --- | --- | --- | --- |
| CCOC(=O)C1=CC(C)(C(=O)OCC)Nc2c(nc(N)[nH]c2=O)N1 (stereo not given) |  | 3.86 | < 3.70 |
| N#CSc1nc[nH]c1C(N)=O |  | < 3.70 | 5.00 |
| CCCCc1ccc(C(N)=O)nc1 |  | < 3.70 | < 3.70 |
| COC(=O)c1nc(-c2ccc(Cl)c(Cl)c2)nc2ccc(Cl)cc12 | inactive |  |  |
| COc1ccc(-n2sc3ncccc3c2=O)cc1 |  | < 4.74 | 5.22 |
| Cc1c(-c2ccccc2)cc(O)c2nc3ccccc3n12 |  | < 3.70 | 4.71 |
| CN(C)Cc1cc(N=Nc2ccccc2)ccc1O |  | < 3.70 | 3.99 |
| CCCCCCc1ccc(C(=O)NO)cc1 |  | < 3.70 | 4.04 |
| N=C1OC(CN2CCN(c3ccccc3)CC2)CN1C(=S)Nc1ccccc1 (stereo not given) |  | < 3.70 | 3.85 |
| O=[N+]([O-])c1ccc(-c2cc(O)c3nc4ccccc4n3c2)cc1 |  | 3.75 | < 3.70 |
| O=C(c1ccc(Br)cc1)n1c2ccc(Br)cc2c2nc3ccccc3nc21 |  | < 4.30 | < 4.30 |
| COc1ccc(CCc2ccccc2CC(=O)O)cc1 |  | < 3.03 | 3.23 |
| O=C(/C=C\c1cccc2ccccc12)c1cccs1 |  | < 5.40 | < 5.40 |
| CC1NC(=O)c2cc(=O)n(C)c(O)c21 (stereo not given) |  | < 3.68 | < 3.68 |
| OCc1ccc2c(c1)CC1(Cc3ccccc3C1)C2 |  | < 3.70 | 4.70 |
| CCOC(=O)CC1(c2cccc3ccccc23)OC(=O)c2ccccc21 (stereo not given) | inactive |  |  |
| CC1SC2=NC3=C(c4ccccc4C3=O)C(c3ccccc3Cl)N2C1=O (stereo not given) |  | < 4.45 | < 4.45 |
| COCC[P+](c1ccccc1)(c1ccccc1)c1ccccc1 |  | < 3.70 | 5.11 |
| O=C(/C=C/c1ccc(Cl)c(Cl)c1)CCN1CCN(CCC(=O)/C=C/c2ccc(Cl)c(Cl)c2)CC1 |  | < 3.70 | 5.72 |
| N#Cc1c(=O)[nH]c(=O)n2c1[nH]c1ccccc12 |  | < 3.70 | < 3.70 |
| N#C/C(=C\c1cc(O)c(O)c(O)c1)C(=O)NCCCNC(=O)/C(C#N)=C/c1cc(O)c(O)c(O)c1 |  | < 3.88 | 4.67 |
| CC1C(c2ccc3c(c2)OCO3)c2cc3c(cc2OC1N1CCCC1)OCO3 (stereo not given) |  | < 4.00 | 4.32 |
| CN1C(=O)C2C3C=C4c5ccccc5N(c5ccccc5)C4(C2C1=O)[C@H]1C(=O)N(C)C(=O)[C@@H]31 (stereo not given in full) |  | < 4.79 | < 4.79 |
